Assay results from patent US20120015906A1, “USES OF BORTEZOMIB IN PREDICTING SURVIVAL IN MULTIPLE MYELOMA PATIENTS” (priority 2009, published 2012).
Entries after “also recorded” stand apart in the source; their conditions may differ.

Assays:
proteasome genes [1] = settings: Burington et al., 2009; cited from earlier work
proteasome genes [2] = test: Proteasome gene expression changes after short-term exposure (test-dosing) to bortezomib, dexamethasone, thalidomide, melphalan; assay type: in vivo, human; settings: for proteasome gene expression change after short-term exposure: test-dosing in myeloma patients
Source text: In earlier studies, pharmacogenomics was used to identify genes altered by short-term exposure of therapy-naïve cases to thalidomide and dexamethasone. Little to no overlap was found in the genes altered by these agents with those altered by bortezomib.

| SMILES | hyperactivation of proteasome genes after short-term drug (proteasome genes [1]) | changes for some proteasome genes (e.g. PSMB3 and PSMD14) compared to the changes after bortezomib (proteasome genes [2]; FIG. 10, short-term exposure) | change of PSMB2 and PSMD14 compared to the changes after bortezomib (proteasome genes [2]; melphalan test-dosing, Total Therapy 4) | proteasome gene expression change after short-term exposure (proteasome genes [2]) |
| --- | --- | --- | --- | --- |
| Nc1cccc2c1CN(C1CCC(=O)NC1=O)C2=O (stereo not drawn) [lenalidomide] | not associated with hyperactivation of proteasome genes | – | – | – |
| N[C@@H](Cc1ccc(N(CCCl)CCCl)cc1)C(=O)O [melphalan] | – | reversed | inversely changed | most proteasome genes did not change |
| O=C1CCC(N2C(=O)c3ccccc3C2=O)C(=O)N1 (stereo not drawn) [thalidomide] | not associated with hyperactivation of proteasome genes | – | – | complete lack of activation; also recorded: did not change |
